Data on 21 compounds can be found in EP0562849A2, “Steroid derivatives” (priority 1992, dated 1993).

Where “and” joins values, the source holds several entries; their conditions need not be identical. Identical values can stand only once. Like-named read-outs stand apart in the source and are kept apart here.

The subject of the assay is human LDL receptor promoter. As to the kind of experiment: in vitro Luciferase Activity Test (LDL receptor promoter-luciferase reporter in recombinant CHO cells). The assay is classed as cell-based. The arrangement: MED: unit not given here. As to conditions: for Emax: Homo sapiens, CHO, read-out: MA%; for Emax / MA%: maximum activity (%) over control; for MED: minimum effective dose (molar concentration, unit not given), 24 hr, assay medium with 0.5 µg/ml 25-hydroxycholesterol; for RED: relative effective dose compared to compound of Example 4, below one = more active. As for the experimental part:
A 1546 base pair sequence of the human LDL receptor promoter was amplified using the polymerase chain reaction. A reaction mixture containing 20 pMoles each of the synthetic oligonucleotides 5'-[…]-3' (Seq. I.D. No: 1) and 5'-AAG-[…]-3', (Seq. I.D. No:2) 1 µg human genomic DNA purified from the adenocarcinoma cell line P3UCLA, 200 µM each of dATP, dGTP, dCTP, and TTP, 2.5 units of Taq DNA polymerase, 10mM Tris-HCI pH 8.3, 50 mM KCI, […], 0.1% gelatin in a final volume of 100 µl was subjected to 30 cycles of 15 sec at 96°C, 30 sec at 55°C, and 1 min at 72°C. The material was subject to gel electrophoresis on a 1% agarose gel and the 1546 base pair band was isolated and restriction enzyme digested with Hind III and Nde I. This fragment was ligated into the plasmid pSP72 (ProMega Biotech), which had previously been restriction enzyme nuclease digested with Hind III and Nde I. The resulting vector, pNLDLRP, was restriction endonulease digested with Ndel and Hind III and the material was again run on a 1% agarose gel to reisolate the 1546 bp LDL receptor sequence.
Plasmid vector PSv2 was constructed by digesting plasmid pSv2-globin with Hind III and Bgl II then ligating an Nrul-Xhol linker into the vector. Plasmid pSv2 globin is disclosed in U.S. Patent No. 4,775,624, the entire teaching of which is herein incorporated by reference. The linker contained the following sequences: [formula] (Seq. I.D. No: 3), and [formula] ' (Seq. I.D. No:4).
The resulting vector was designated pSv2-H NXB because it contained a […], an Nrul site, an Xhol site and a Bgl site. The Hind III-Bgl II fragment of plasmid pAlc4(NRRL B-18783), which contains the firefly luciferase gene, was then ligated into the Hin III-Bgl site of plasmid pSv2-HNXB. A neomycin resistance-conforming gene was then ligated into the Bam HI site of the resultant plasmid to form plasmid pSv2.
A 1546 base pair fragment was isolated and cloned into a Ndel and Hind III (partial) restriction digested vector pSv2 containing the firefly luciferase reporter gene and a gene for neomycin resistance. The resulting vector, pLDL-Luc1 Neo-10, contains the human LDL receptor promoter driving expression of the firefly luciferase gene, a gene coding for neomycin resistance, ampicillin resistant marker and an origin of replication.
Plasmid pLDL-Luc 1 Neo-10 was used to stably transfect Chinese Hamster Ovary cells using a Lipofection Reagent kit and procedure from Gibco BRL Research Products Division Life Technologies Inc. Transformants were selected by picking individual colonies grown in Dulbecco's modified Eagle's medium supplimented with 10% fetal bovine serum and containing 500 µg per ml […]. […] Clone S27/B30 was used for subsequent screening.
In developing a cell based screen it is important to have a negative control. The viral SV40 promoter is ideal for this purpose in that it has a number of SP1 elements that enhance gene transcription. These elements are not under the control of end product repression; but they do have a high degree of sequence homology with the 16 base pair long sterol response element found in the LDL receptor promoter. The SV40 promoter should therefore be a sensitive mechanism to screen out agents that induce nonspecific transcription.
Chinese Hamster Ovary cells were stably cotransfected with a vector pSV2AL-A 5' containing the SV40 promoter driving expression of the firefly luciferase gene and a second vector pSV2 NeoBam containing a neomycin resistant marker. Transfections were carried out using the Lipofectin Reagent kit and procedure from Gibco BRL Research Products Division Life Technologies Inc. Transformants were selected by picking individual colonies grown in Dulbecco's modified Eagle's medium supplemented with 10% fetal bovine serum and containing 500 µg per ml of geneticin. Individual clones were selected, lysed and assayed for luciferase production. […]
(In general: A reporter such as luciferase makes a cellular process visible.)

The mark [1] stands for this setting: NA is not active, 30% luciferase activity cutoff point (footnote 1).
Where [2] appears, read: tests using 30% luciferase activity cutoff point (footnote 1).
Where [3] appears, read: 30% luciferase activity cutoff point (footnote 1).
[4] abbreviates: 15% luciferase activity cutoff point (footnote 2).
[5] abbreviates: tests using 15% luciferase activity cutoff point (footnote 2).

Turning to `C/C=C/C[C@@H]1C(=O)CC[C@]2(C)[C@H]3CC[C@]4(C)[C@@H]([C@H](C)CCCC(C)(C)O)CC[C@H]4[C@@H]3CC[C@@H]12` [Example 3, [4a(E),5a]-4-(2-butenyl)-25-hydroxycholestan-3-one], the Emax under setting [1] turned out to be 144%. Further, the MED under setting [2] is recorded as 2.2. For the same compound, the RED under setting [3] stood at 0.97.

Regarding `CCCC[C@@H]1[C@H](O)CC[C@@]2(C)[C@H]1CC[C@@H]1[C@@H]2CC[C@]2(C)[C@@H]([C@H](C)CCCC(C)C)CC[C@@H]12` [Example 7, [4a,5a]-4-butylcholestan-3a-ol], under setting [4], the Emax turned out to be 46% and the MA% was 30%.

In the case of `C/C=C/C[C@@H]1[C@H](N)CC[C@@]2(C)[C@H]1CC[C@@H]1[C@@H]2CC[C@]2(C)[C@@H]([C@H](C)CCCC(C)C)CC[C@@H]12` [Example 8, [4a(E), 5a]-4-(2-butenyl)-3a-aminocholestone], the Emax under setting [1] was 51%. Also, the MED under setting [2] turned out to be 5.6. Further, the RED under setting [3] is recorded as 2.50.

Regarding `C/C=C/C[C@@H]1[C@H](NC(C)=O)CC[C@@]2(C)[C@H]1CC[C@@H]1[C@@H]2CC[C@]2(C)[C@@H]([C@H](C)CCCC(C)C)CC[C@@H]12` [Example 9, [4a(E),5a]-4-(2-butenyl)-3a acetamidocholestane], the Emax under setting [1] came out at 60%. Further, the MED under setting [2] was 2.0. The RED under setting [3] stood at 0.88.

Take `C/C=C/C[C@@H]1[C@@H](NC(C)=O)CC[C@@]2(C)[C@H]1CC[C@@H]1[C@@H]2CC[C@]2(C)[C@@H]([C@H](C)CCCC(C)C)CC[C@@H]12` [Example 10, [4a(E),5a]-4-(2-butenyl)-3b acetamidocholestane]: under setting [1], the Emax came out at 55%. The MED under setting [2] worked out at 10.3. Moreover, under setting [3], the RED worked out at 4.5.

As to `CC(C)CCC[C@@H](C)[C@H]1CC[C@H]2[C@@H]3CCC4[C@H](Cc5ccccc5)[C@H](O)CC[C@]4(C)[C@H]3CC[C@]12C` (some centres unmarked) [Example 22, 4a-benzylcholestan-3a-ol], the Emax under setting [1] was 18%.

For the compound `CC(C)CCC[C@@H](C)[C@H]1CC[C@H]2[C@@H]3CCC4[C@H](Cc5ccc(C(F)(F)F)cc5)[C@H](O)CC[C@]4(C)[C@H]3CC[C@]12C` (some centres unmarked) [Example 26, 4a-(4-trifluoromethylbenzyl)cholestan-3a-ol], under setting [4], the MA% is 59% and 34%. Also, under setting [5], the MED was 9.1.

Take `CC(C)CCC[C@@H](C)[C@H]1CC[C@H]2[C@@H]3CCC4[C@H](Cc5ccc(Cl)c(Cl)c5)[C@H](O)CC[C@]4(C)[C@H]3CC[C@]12C` (some centres unmarked) [Example 27, 4a-(3,4-dichlorobenzyl)cholestan-3a-ol]: under setting [4], the Emax was 32% and the RED is given as 4.0. Besides, the MED under setting [5] stood at 9.1.

Turning to `COC(=O)c1ccc(C[C@H]2C3CC[C@H]4[C@@H]5CC[C@H]([C@H](C)CCCC(C)C)[C@@]5(C)CC[C@@H]4[C@@]3(C)CC[C@H]2O)cc1` (some centres unmarked) [Example 29, 4a-(4-methoxycarbonylbenzyl)cholestan-3a-ol], under setting [4], the Emax stood at 37% and the RED turned out to be 2.5. Also, under setting [5], the MED is reported as 14.

For `CC(C)CCC[C@@H](C)[C@H]1CC[C@H]2[C@@H]3CCC4[C@H](Cc5ccc(Cl)cc5)[C@H](O)CC[C@]4(C)[C@H]3CC[C@]12C` (some centres unmarked) [Example 31, 4a-(4-chlorobenzyl)cholestan-3a-ol], under setting [4], the Emax worked out at 46% and the RED was determined as 4.3. Besides, the MED under setting [5] is given as 9.7.

As for `CC(C)CCC[C@@H](C)[C@H]1CC[C@H]2[C@@H]3CCC4[C@H](Cc5ccc(OCc6ccccc6)cc5)[C@H](O)CC[C@]4(C)[C@H]3CC[C@]12C` (some centres unmarked) [Example 32, 4a-(4-benzyloxybenzyl)cholestan-3a-ol], under setting [4], the Emax stood at 36% and the RED was 3.8. In addition, the MED under setting [5] was 8.6.

With `CC(C)CCC[C@@H](C)[C@H]1CC[C@H]2[C@@H]3CCC4[C@H](Cc5ccc(CO)cc5)[C@H](O)CC[C@]4(C)[C@H]3CC[C@]12C` (some centres unmarked) [Example 33, 4a-(4-hydroxymethylbenzyl)cholestan-3a-ol], under setting [4], the Emax came out at 28% and the RED turned out to be 4.3. In addition, under setting [5], the MED is listed as 9.8.

On to `CC(C)CCC[C@@H](C)[C@H]1CC[C@H]2[C@@H]3CCC4[C@H](Cc5ccc(C(=O)O)cc5)[C@H](O)CC[C@]4(C)[C@H]3CC[C@]12C` (some centres unmarked) [Example 34, 4a-(4-carboxybenzyl)cholestan-3a-ol], for which, under setting [4], the Emax worked out at 38% and the RED is recorded as 2.1. Moreover, the MED under setting [5] worked out at 4.8.

As for `CC(C)CCC[C@@H](C)[C@H]1CC[C@H]2[C@@H]3CCC4=C(Cc5ccccc5)[C@H](O)CC[C@]4(C)[C@H]3CC[C@]12C` [Example 38, 4-benzyl-4-cholesten-3a-ol], under setting [4], the MA% is 33% and 58%; the RED is 7.37 and 3.7. Under setting [5], the MED is 84 and 42.

As to `C=CC[C@H]1C2=CC[C@H]3[C@@H]4CC[C@H]([C@H](C)CCCC(C)C)[C@@]4(C)CC[C@@H]3[C@@]2(C)CC[C@H]1O` [Example 40, 4a-(2-propenyl)-5-cholesten-3a-ol], the Emax under setting [4] was determined as 99%. Further, the MA% under setting [1] is 110% and 71%. The MED under setting [5] is listed as 2.3. Moreover, the RED was 1.0 under setting [4]; 0.51 and 0.52 under setting [3].

For `C=CC[C@@H]1[C@H](O)CC[C@@]2(C)[C@H]1CC[C@@H]1[C@@H]2CC[C@]2(C)[C@@H]([C@H](C)CCCN(C)C)CC[C@@H]12` [Example 44, 4a-(2-propenyl)-cholan-24-N,N-dimethylamino-3a-ol], under setting [4], the Emax is 62% and the MA% is 78%. Further, the MA% under setting [1] was 77% and 56%.

With `C[C@H](CCCN(C)C)[C@H]1CC[C@H]2[C@@H]3CC[C@@H]4C[C@H](O)CC[C@]4(C)[C@H]3C[C@H](O)[C@]12C` [Example 50, 3a, 12a-dihydroxy-25-azacoprostane], under setting [1], the Emax is 81% and the MA% was 92%. Also, under setting [2], the MED turned out to be 6.2.

For `C[C@H](CCCN(C)C)[C@H]1CC[C@H]2[C@@H]3CC[C@@H]4C[C@H](O)CC[C@]4(C)[C@H]3CC[C@]12C` [Example 51, 3a-hydroxy-25-azacoprostane], the Emax reads like this: under setting [4], 173%; under setting [1], 112%. Moreover, the MED is, setting by setting: under setting [5], 1.28; under setting [2], 6.4. Moreover, the RED runs as follows: under setting [4], 1.16; under setting [3], 1.13.

In the case of `C[C@H](CCCN(C)C)[C@H]1CC[C@H]2[C@@H]3[C@H](O)C[C@@H]4C[C@H](O)CC[C@]4(C)[C@H]3CC[C@]12C` [Example 52, 3a,7a-dihydroxy-25-azacoprostane], the MA% under setting [1] is 121% and 85% and 136% and 86% and 84%.

Take `C[C@H](CCCN(C)C)[C@H]1CC[C@H]2[C@@H]3[C@H](O)C[C@@H]4C[C@H](O)CC[C@]4(C)[C@H]3C[C@H](O)[C@]12C` [Example 53, 3a,7a,12a-trihydroxy-25-azacoprostane]: under setting [1], the MA% was 57% and 99%.

Regarding `C[C@H](CCCN(C)C)[C@H]1CC[C@H]2[C@@H]3[C@H](O)C[C@@H]4C[C@H](O)CC[C@]4(C)[C@H]3CC[C@]12C` [Example 54, 3a,7a-dihydroxy-25-azacoprostane], under setting [1], the MA% was 102% and 92%. Further, the MED under setting [2] was 12.3.
